Measured values: patent publication US20030229140A1, “Herbal molecule as potential anti-leukemic drug” (priority 2002, published 2003)
Where two headings read alike, the source gives them in different places.

Experiments:
[1] = test system: Promonocytic cell line (U937); assay: Incubation of CD33+ promonocytic cell line U937 with CA/PCQ, viable cell count; assay type: cell-based
Method: Culture of Promonocytic cell line U937. […] This cell line is CD33^+. Incubation of CD33^+ cell line U937 with CA. […] Cells were then washed and counted for viability.

[2] = test system: Erythroleukemic cell line (K562); assay: Incubation of CD33- erythroleukemic cell line K562 with CA/PCQ, viable cell count; assay type: cell-based; conditions: for inhibition at 50 µg/mL: K562, 50.0 μg/ml; for inhibition at 100 µg/mL: K562, 100.0 μg/ml
Description: This cell line was collected from American Type Culture Collection (ATCC), VA, USA. This cell line is […]. […] Cells were then washed and counted for viability.

[3] = test system: Molt 4 (T lymphoid cell line); assay: Growth inhibition of T-lymphoid cell line Molt-4 by CA; assay type: cell-based
Description: Culture of T-Lymphoid cell line Molt-4. This cell line was obtained from American Type culture collection (ATCC), VA, USA and grown in vitro as described for the cell line K562.

Normal PBMC = assay: Growth inhibition of normal individuals' PBMC by CA/PCQ; assay type: cell-based, human; conditions: Homo sapiens; for inhibition at 50 µg/mL: 50.0 μg/ml; for inhibition at 100 µg/mL: 100.0 μg/ml
Description: Preparation of peripheral blood mononuclear cells (PBMC) from normal individuals. Whole blood was collected and mononuclear cells were separated by Ficoll/Hypaque density gradient centrifugation.

[4] = test system: CML patient's leukemic cells; assay: Analysis of cell cycle progression and apoptosis by flow cytometry; assay type: cell-based, human
Method: Analysis of cell cycle progression and apoptosis by Flow cytometry PBMC of a CML patient was cultured in RPMI-1640 medium supplemented with 10% […] fetal bovine serum in the presence or absence of CA (100.0 μg/ml) for 48 hr. at 37° C. in 5% CO2. Cells were fixed with 40% ethanol treated with 500 μg/ml Rnase A, and then with 69 μM propidium iodide for analysis of DNA content by Flow Cytometry as described (Mitra et al., Molecular Medicine, 6:527-541, 2000).

leukemic cells = assay: Biological activity (destruction of leukemic cells) of Piper betel fractions and HPLC peaks; assay type: cell-based; conditions: fractions, zones and HPLC peaks of Piper betel leaf extract
Method: Collected material was examined for biological activity i.e. destruction of leukemic cells. […] 10 gm of above-mentioned material was loaded on Sephadex LH-20 column and chromatographed with water, water-methanol (1:1) and methanol as eluent. Three different fractions thus obtained from three different solvent systems were separately checked for biological activity. […] The column was equilibrated with methanol-water-acetic acid (23:76:1), flow rate was maintained at 1.0 ml per min and peaks were identified at 280 nm. According to the retention time (RE) different peaks could be divided into three zones, ZA/ZB and ZC (FIG. 1). ZA had 4 major peaks whereas ZB had very small to moderate 10 peaks and ZC had two distinct peaks. It was convenient to observe biological activity of three zones AA, ZB and ZC, which were separately tested on leukemia cells for destructive activity.

[5] = Homo sapiens, 24 h, 1 day, 1 × 10^5 cells per ml per well, read-out: Percentage inhibition of Cell Growth
[6] = Homo sapiens, 48 h, 2 days, 1 × 10^5 cells per ml per well, read-out: Percentage inhibition of Cell Growth
[7] = Homo sapiens, 72 h, 3 days, 1 × 10^5 cells per ml per well, read-out: Percentage inhibition of Cell Growth
[8] = 24 h, Normal PBMC, 1 day, 1 × 10^5 cells per ml per well, read-out: Percentage inhibition of Cell Growth
[9] = 48 h, Normal PBMC, 2 days, 1 × 10^5 cells per ml per well, read-out: Percentage inhibition of Cell Growth
[10] = 72 h, Normal PBMC, 3 days, 1 × 10^5 cells per ml per well, read-out: Percentage inhibition of Cell Growth
[11] = CML patient's leukemic cells, CA 100.0 μg/ml, 2 days

O=C(/C=C/c1ccc(O)c(O)c1)O[C@@H]1C[C@](O)(C(=O)O)C[C@@H](O)[C@H]1O (single isomer, unassigned) [CA, chlorogenic acid or 3-Caffeoyl quinic acid] was tested, and the inhibition at 20 µg/mL ([1]; Homo sapiens, U-937, U937, 20 μg/ml, 48 hr, 1 × 10^5 cells/ml/well, read-out: Percent inhibition of cell growth after 48 hr of incubation) was 90.6%, the “destruction of cells (in words)” value ([1]; U937) was “destroyed” and the inhibition at 10 µg/mL ([2]; Homo sapiens, 24 h, K562, 10.0 μg/ml, 1 day, 1 × 10^5 cells per ml per well, read-out: Percentage inhibition of Cell Growth) was 8%. It also gave an inhibition at 25 µg/mL ([2]; Homo sapiens, 24 h, K562, 25.0 μg/ml, 1 day, 1 × 10^5 cells per ml per well, read-out: Percentage inhibition of Cell Growth) of 20%, an inhibition at 50 µg/mL [2, 5] of 28% and an inhibition at 100 µg/mL [2, 5] of 84%. The inhibition at 10 µg/mL ([2]; Homo sapiens, 48 h, K562, 10.0 μg/ml, 2 days, 1 × 10^5 cells per ml per well, read-out: Percentage inhibition of Cell Growth) was 48.1%, the inhibition at 25 µg/mL ([2]; Homo sapiens, 48 h, K562, 25.0 μg/ml, 2 days, 1 × 10^5 cells per ml per well, read-out: Percentage inhibition of Cell Growth) was 63% and the inhibition at 50 µg/mL [2, 6] was 77.8%. It also gave an inhibition at 100 µg/mL [2, 6] of 98.1%, an inhibition at 10 µg/mL ([2]; Homo sapiens, 72 h, K562, 10.0 μg/ml, 3 days, 1 × 10^5 cells per ml per well, read-out: Percentage inhibition of Cell Growth) of 85.2% and an inhibition at 25 µg/mL ([2]; Homo sapiens, 72 h, K562, 25.0 μg/ml, 3 days, 1 × 10^5 cells per ml per well, read-out: Percentage inhibition of Cell Growth) of 92.6%. For the same compound, the inhibition at 25 µg/mL ([2]; Homo sapiens, 72 h, K562, 25.0 μg/ml, 3 days, 2×10^5 cells per ml per well, read-out: % Inhibition of cell growth (After 3 days of incubation)) was 20%, the inhibition at 50 µg/mL [2, 7] was 100% and the inhibition at 50 µg/mL ([2]; Homo sapiens, 72 h, 3 days, 2×10^5 cells per ml per well, read-out: % Inhibition of cell growth (After 3 days of incubation)) was 28%. It also gave an inhibition at 100 µg/mL [2, 7] of 100%, an inhibition at 10 µg/mL ([2]; Homo sapiens, K562, 10 μg/ml, 48 hr, 1 × 10^5 cells/ml/well, read-out: Percent inhibition of cell growth after 48 hr of incubation) of 46.6% and an inhibition at 15 µg/mL ([2]; Homo sapiens, K562, 15 μg/ml, 48 hr, 1 × 10^5 cells/ml/well, read-out: Percent inhibition of cell growth after 48 hr of incubation) of 93.3%. The inhibition at 20 µg/mL ([2]; Homo sapiens, K562, 20 μg/ml, 48 hr, 1 × 10^5 cells/ml/well, read-out: Percent inhibition of cell growth after 48 hr of incubation) was 100%, the inhibition at 25 µg/mL ([2]; Homo sapiens, K562, 2×10^6/ml/well, 25 μg/ml, read-out: growth inhibition of leukemic cell lines) was no more than 20% and the “destruction of cells (in words)” value ([2]; K562) was “destroyed”. For the same compound, the “destruction of cells (in words)” value [3] was “requires higher dose”, the inhibition at 50 µg/mL (Normal PBMC; [8]) was 6.66% and the inhibition at 100 µg/mL (Normal PBMC; [8]) was 6.66%. For the same compound, the inhibition at 50 µg/mL (Normal PBMC; [9]) was 10.3%, the inhibition at 100 µg/mL (Normal PBMC; [9]) was 17.2% and the inhibition at 50 µg/mL (Normal PBMC; [10]) was 15.2%. For the same compound, the inhibition at 100 µg/mL (Normal PBMC; [10]) was 19.5%, the inhibition at 25 µg/mL (Normal PBMC; 72 h, Normal individual's PBMC, 25.0 μg/ml, 3 days, 2×10^5 cells per ml per well, read-out: % Inhibition of cell growth (After 3 days of incubation)) was 1.03% and the inhibition at 50 µg/mL (Normal PBMC; 72 h, Normal individual's PBMC, 3 days, 2×10^5 cells per ml per well, read-out: % Inhibition of cell growth (After 3 days of incubation)) was 1.03%. The “apoptosis by cell-cycle analysis (in words)” value ([4]; 100.0 μg/ml, two days of culture) was “caused apoptosis”, the “percentage of cells in (>2n DNA)” value [4, 11] was 56.35% and the “percentage of cells in G0/G1 (2n DNA)” value [4, 11] was 33.13%. For the same compound, the “percentage of cells in Sub G0/G1 (apoptotic 2n DNA)” value [4, 11] was 10.64% and the “biological activity i.e. destruction of leukemic cells (in words)” value (leukemic cells) was “Except peak no 6 (Rt 9.16 min) no other peaks had shown detectable activity”.
